Test results taken from ChEMBL document CHEMBL2169821, “Design, synthesis, and evaluation of pH-dependent hydrolyzable emetine analogues as treatment for prostate cancer” (J Med Chem, 2012).
Active and inactive are the calls of the source. The calls are words filed in the database; no cut-off is given here.

Experiments:
[1] = system: PC-3; assay: Cytotoxicity against human PC3 cells measured on day 3 by MTT assay; assay type: functional, cell-based
[2] = system: PC-3; assay: Cytotoxicity against human PC3 cells measured on day 7 by MTT assay; assay type: functional, cell-based
[3] = system: Mus musculus; assay: Toxicity in Balb/c mouse assessed as mortality at 100 mg/kg, iv administered as bolus measured within 48 hrs; assay type: organism-based; set-up: dose 100 mg/kg, route intravenous; settings: in vivo
[4] = system: DU-145; assay: Cytotoxicity against human DU145 cells measured on day 5 by MTT assay; assay type: functional, cell-based
[5] = system: DU-145; assay: Cytotoxicity against human DU145 cells measured on day 7 by MTT assay; assay type: functional, cell-based
[6] = system: PC-3; assay: Cytotoxicity against human PC3 cells by MTT assay; assay type: functional, cell-based; settings: TDE = time-dependent effect
[7] = system: Mus musculus; assay: Toxicity in Balb/c mouse assessed as weight loss at 33 mg/kg, iv qd administered as bolus for 5 days measured within 48 hrs relative to untreated control; assay type: organism-based; set-up: dose 33 mg/kg, route intravenous; settings: in vivo
[8] = system: Mus musculus; assay: Toxicity in Balb/c mouse assessed as mortality at 33 mg/kg, iv qd administered as bolus for 5 days measured up to 5 days; assay type: organism-based; set-up: dose 33 mg/kg, route intravenous; settings: in vivo, 120 h
[9] = system: DU-145; assay: Cytotoxicity against human DU145 cells measured on day 3 by MTT assay; assay type: functional, cell-based
[10] = system: Mus musculus; assay: Toxicity in Balb/c mouse assessed as weight loss at 33 mg/kg, iv qd administered as bolus for 5 days measured within 24 hrs (reference value: 1.7%); assay type: organism-based; set-up: dose 33 mg/kg, route intravenous; settings: in vivo
[11] = system: PC-3; assay: Cytotoxicity against human PC3 cells measured on day 5 by MTT assay; assay type: functional, cell-based
[12] = system: Mus musculus; assay: Toxicity in Balb/c mouse assessed as lethargy at 33 mg/kg, iv qd administered as bolus for 5 days measured within 48 hrs; assay type: organism-based; set-up: dose 33 mg/kg, route intravenous; settings: in vivo
[13] = system: LNCaP; assay: Cytotoxicity against human LNCAP cells measured on day 3 by MTT assay; assay type: functional, cell-based
[14] = system: LNCaP; assay: Cytotoxicity against human LNCAP cells measured on day 5 by MTT assay; assay type: functional, cell-based
[15] = system: LNCaP; assay: Cytotoxicity against human LNCAP cells by MTT assay; assay type: functional, cell-based; settings: TDE = time-dependent effect
[16] = system: DU-145; assay: Cytotoxicity against human DU145 cells by MTT assay; assay type: functional, cell-based; settings: TDE = time-dependent effect
[17] = system: LNCaP; assay: Cytotoxicity against human LNCAP cells measured on day 7 by MTT assay; assay type: functional, cell-based
[18] = Chemical stability of the compound in phosphate buffer up to 5 days at pH 7.4 by HPLC analysis; assay type: physicochemical; settings: for remaining at 120 h: phosphate buffer, pH 7.4, read-out: Stability
[19] = system: Mus musculus; assay: Toxicity in Balb/c mouse assessed as adverse effects at 100 mg/kg, iv qd administered as bolus for 5 days measured up to 3 weeks; assay type: organism-based; set-up: dose 100 mg/kg, route intravenous; settings: in vivo
[20] = system: Mus musculus; assay: Toxicity in Balb/c mouse assessed as change in body weight at 100 mg/kg, iv qd administered as bolus for 5 days measured within 48 hrs relative to control; assay type: organism-based; set-up: dose 100 mg/kg, route intravenous; settings: in vivo
[21] = system: PC-3; assay: Ratio of compound IC50 to emetine IC50 for human PC3 cells measured on day 5 at pH 7.4 by MTT assay; assay type: functional
[22] = system: Mus musculus; assay: Toxicity in Balb/c mouse assessed as adverse effects at 100 mg/kg, iv qd administered as bolus for 5 days; assay type: organism-based; set-up: dose 100 mg/kg, route intravenous; settings: in vivo, 120 h
[23] = Prodrug activation in phosphate buffer assessed as emetine formation up to 48 hrs at pH 5.5 by HPLC analysis; settings: pH 5.5, 48 h
[24] = system: PC-3; assay: Ratio of compound IC50 to emetine IC50 for human PC3 cells measured on day 5 at pH <7 by MTT assay; assay type: functional
[25] = Chemical stability of the compound in phosphate buffer up to 48 hrs at pH 5.5 by HPLC analysis; assay type: physicochemical; settings: pH 5.5, 48 h
[26] = Chemical stability of the compound in phosphate buffer up to 48 hrs at pH 6.5 by HPLC analysis; assay type: physicochemical; settings: pH 6.5, 48 h

SMILES: CC[C@H]1CN2CCc3cc(OC)c(OC)cc3[C@@H]2C[C@@H]1C[C@H]1NCCc2cc(OC)c(OC)cc21.Cl.Cl [EMETINE HYDROCHLORIDE]
- Activity [1]: Dose-dependent effect
- IC50 ([1]; PC-3, 72 h): 0.0351 µM
- Activity [2]: Dose-dependent effect
- IC50 ([2]; Homo sapiens, PC-3, 168 h): 0.0294 µM
- Activity [3]: Toxic
- Activity [4]: Dose-dependent effect
- IC50 ([4]; DU-145, 120 h): 0.0253 µM
- Activity [5]: Dose-dependent effect
- IC50 ([5]; DU-145, 168 h): 0.0237 µM
- Activity [6]: tde
- Activity [7]: 3.6%
- Activity [8]: Non-toxic
- Activity [9]: Dose-dependent effect
- IC50 ([9]; DU-145, 72 h): 0.0329 µM
- Activity [10]: 4.5%
- Activity [11]: Dose-dependent effect
- IC50 ([11]; PC-3, 120 h): 0.0268 µM
- Activity [12]: Toxic
- Activity [13]: Dose-dependent effect
- IC50 ([13]; 72 h): 0.0379 µM
- Activity [14]: Dose-dependent effect
- Activity [15]: tde
- Activity [16]: tde
- Activity [17]: Dose-dependent effect
- IC50 ([17]; Homo sapiens, LNCaP, 168 h): 0.0316 µM

SMILES: CC[C@H]1CN2CCc3cc(OC)c(OC)cc3[C@@H]2C[C@@H]1C[C@@H]1c2cc(OC)c(OC)cc2CCN1C(=O)/C=C(/C)C(=O)[O-].[Na+]
- remaining at 120 h [18]: 100%
- IC50 ([2]; Homo sapiens, PC-3, 168 h): 0.428 µM
- Activity [19]: Non-toxic
- Activity [20]: Non-toxic
- Ratio IC50 [21]: 16.8
- Activity [22]: Non-toxic
- Drug metabolism [23]: Active
- Ratio IC50 [24]: 2.5
- IC50 ([17]; Homo sapiens, LNCaP, 168 h): 0.458 µM

SMILES: CC[C@H]1CN2CCc3cc(OC)c(OC)cc3[C@@H]2C[C@@H]1C[C@@H]1c2cc(OC)c(OC)cc2CCN1C(=O)CCC(=O)O
- IC50 ([2]; pc-3): 2.1 µM
- IC50 ([17]; lncap): 2.41 µM

SMILES: CC[C@H]1CN2CCc3cc(OC)c(OC)cc3[C@@H]2C[C@@H]1C[C@@H]1c2cc(OC)c(OC)cc2CCN1C(=O)/C=C(/CC(=O)[O-])C(=O)[O-].[Na+].[Na+]
- Activity [1]: Active
- remaining at 120 h [18]: 100%
- IC50 ([2]; Homo sapiens, PC-3, 168 h): 2.89 µM
- Activity [11]: Active
- Drug metabolism [23]: Active
- IC50 ([17]; Homo sapiens, LNCaP, 168 h): 5.46 µM

SMILES: CC[C@H]1CN2CCc3cc(OC)c(OC)cc3[C@@H]2C[C@@H]1C[C@@H]1c2cc(OC)c(OC)cc2CCN1C(=O)NCc1ccc(OC)cc1
- Activity [1]: Active
- IC50 ([2]; Homo sapiens, PC-3, 168 h): 3.67 µM
- Stability [25]: Stable
- Activity [11]: Active
- Stability [26]: Stable
- IC50 ([17]; Homo sapiens, LNCaP, 168 h): 7.84 µM

SMILES: CC[C@H]1CN2CCc3cc(OC)c(OC)cc3[C@@H]2C[C@@H]1C[C@@H]1c2cc(OC)c(OC)cc2CCN1C(=O)NCc1ccccc1
- Activity [1]: Active
- IC50 ([2]; Homo sapiens, PC-3, 168 h): 7.61 µM
- Stability [25]: Stable
- Activity [11]: Active
- Stability [26]: Stable
- IC50 ([17]; Homo sapiens, LNCaP, 168 h): 2.12 µM

SMILES: CC[C@H]1CN2CCc3cc(OC)c(OC)cc3[C@@H]2C[C@@H]1C[C@@H]1c2cc(OC)c(OC)cc2CCN1C(=S)[S-].[Na+]
- remaining at 120 h [18]: 100%
- IC50 ([2]; Homo sapiens, PC-3, 168 h): 0.087 µM
- Activity [19]: Non-toxic
- Activity [7]: 0.67%
- Activity [8]: Non-toxic
- Activity [20]: Non-toxic
- Activity [10]: 2%
- Ratio IC50 [21]: 16.5
- Activity [11]: Active
- Activity [22]: Non-toxic
- Activity [12]: Non-toxic
- Ratio IC50 [24]: 1.9
- IC50 ([17]; Homo sapiens, LNCaP, 168 h): 0.079 µM

SMILES: CC[C@H]1CN2CCc3cc(OC)c(OC)cc3[C@@H]2C[C@@H]1C[C@@H]1c2cc(OC)c(OC)cc2CCN1C(=S)NCc1ccc(Cl)cc1
- Activity [1]: Active
- IC50 ([2]; Homo sapiens, PC-3, 168 h): 2.86 µM
- Stability [25]: Stable
- Activity [11]: Active
- Stability [26]: Stable
- IC50 ([17]; Homo sapiens, LNCaP, 168 h): 1.59 µM

SMILES: CC[C@H]1CN2CCc3cc(OC)c(OC)cc3[C@@H]2C[C@@H]1C[C@@H]1c2cc(OC)c(OC)cc2CCN1S(=O)(=O)c1ccccc1
- IC50 ([2]; Homo sapiens, PC-3, 168 h): > 10 µM
- Stability [25]: Stable
- Stability [26]: Stable
- IC50 ([17]; Homo sapiens, LNCaP, 168 h): 2.26 µM

SMILES: CC[C@H]1CN2CCc3cc(OC)c(OC)cc3[C@@H]2C[C@@H]1C[C@@H]1c2cc(OC)c(OC)cc2CCN1C(=O)/C=C\C(=O)O
- Stability ([18]; buffer, pH 7.4, 120 h): 100%
- IC50 ([2]; pc-3): 5.04 µM
- Drug metabolism [23]: Active
- IC50 ([17]; lncap): 6.78 µM

SMILES: CC[C@H]1CN2CCc3cc(OC)c(OC)cc3[C@@H]2C[C@@H]1C[C@@H]1c2cc(OC)c(OC)cc2CCN1C(=S)NCc1ccccc1
- Activity [1]: Active
- IC50 ([2]; Homo sapiens, PC-3, 168 h): 6.92 µM
- Stability [25]: Stable
- Activity [11]: Active
- Stability [26]: Stable
- IC50 ([17]; Homo sapiens, LNCaP, 168 h): 2.06 µM
